Measurements reported in patent publication US11203563B2, “Preparation of zinc linolenate, and application of zinc linolenate in preparing anti-helicobacter pylori drug” (NANJING MEDICAL UNIVERSITY, priority 2018, dated 2021).

Experiments:
[1] = test system: AGS cells
Description: 2.4.1 Cytotoxicity detection
(1) Ges-1 and AGS cell suspensions are prepared, and the concentration is adjusted to 1×10^6.
(2) Inoculation into a 96-well plate: 100 μL is added per well, and 3 replicates is performed for the same sample.
(3) Culture is performed for 12 hours in an incubator at 37° C.
(4) 10 μL of zinc linolenate, 10 μL of linolenic acid, and 10 μL of zinc chloride are added respectively, and the working concentrations are 400 μg/mL, 300 μg/mL, 200 μg/mL, 100 μg/mL, and 0 μg/mL, respectively. A group added with drugs and without cells and a PBS control group are set.
(5) Culture is performed for 12 hours in an incubator at 37° C.
(6) 10 μL of CCK-8 is added, mixed by tapping and incubated for 4 hours.
(7) The absorbance at 450 nm is measured, and the survival rate is calculated according to the formula: cell proliferation rate[(As−Ab)]/[(Ac−Ab)]×100%, wherein As are wells containing the cell culture medium, drugs, and CCK-8; Ac are wells containing the cell culture medium, CCK-8, and no drug; and Ab are wells containing no cells and drugs, but only the culture medium and CCK-8. A survival curve is established based on the survival rate.

[2] = test system: Listeria; test: MIC by microdilution method, non-Helicobacter pylori bacteria; type: cell-based; parameters: key: +: Bacterial growth; −: No bacterial growth; conditions: 72 h
Description: (§1) 2.2 Detection of minimum inhibitory concentration (MIC, 100 µL system) of zinc linolenate for non-Helicobacter pylori bacteria by microdilution method
(§2) (1) Zinc linolenate (2 mg/mL) is prepared.
(§3) (3) Bacterial solution preparation: the non-Helicobacter pylori grown in a log phase on a solid plate is taken to make a bacterial suspension with a BHI culture medium, the absorbance (OD600) is adjusted to 0.3 (1×10^8 CFU/mL), and the bacterial suspension is diluted 100 times to 1×10^6 CFU/mL for use.
(§4) (4) Inoculation of bacterial solution: 10 μL of bacterial solution above is taken and added to the 1-8th wells (the concentration of the bacterial solution per well is about 1.0×10^5 CFU/mL). Culture is performed for 72 h to judge the result. The drug concentrations of the first-seventh wells are 128, 64, 32, 16, 8, 4, and 2 μg/mL, respectively.
(§5) The experiment only makes sense when the bacteria obviously grow in the 8th well, i.e. the positive control well (without antibiotics). When a single drift occurs in the microdilution method, the maximum drug concentration that inhibits bacterial growth should be recorded. If there are multiple drifts, the results should not be reported and the experiment should be repeated. The experiment is repeated 3 times for each drug.

[3] = test system: Shigella dysenteriae; test: as above; type: cell-based; parameters: key: +: Bacterial growth; −: No bacterial growth; conditions: 72 h
Description: as §1, §2, §3, §4, §5

[4] = test system: Pseudomonas aeruginosa (PA01); test: as above; type: cell-based; parameters: key: +: Bacterial growth; −: No bacterial growth; conditions: 72 h
Description: as §1, §2, §3, §4, §5

[5] = test system: Enterococcus faecalis (ATCC19434); test: as above; type: cell-based; parameters: key: +: Bacterial growth; −: No bacterial growth; conditions: 72 h
Description: as §1, §2, §3, §4, §5

[6] = test system: Streptococcus pneumoniae (ATCC49619); test: as above; type: cell-based; parameters: key: +: Bacterial growth; −: No bacterial growth; conditions: 72 h
Description: as §1, §2, §3, §4, §5

[7] = test system: Bacillus cereus; test: as above; type: cell-based; parameters: key: +: Bacterial growth; −: No bacterial growth; conditions: 72 h
Description: as §1, §2, §3, §4, §5

[8] = test system: Campylobacter jejuni (NCTC11168); test: as above; type: cell-based; parameters: key: +: Bacterial growth; −: No bacterial growth; conditions: 72 h
Description: as §1, §2, §3, §4, §5

[9] = test system: Lactobacillus; test: as above; type: cell-based; parameters: key: +: Bacterial growth; −: No bacterial growth; conditions: 72 h
Description: as §1, §2, §3, §4, §5

[10] = test system: Moraxella catarrhalis (ATCC25238); test: as above; type: cell-based; parameters: key: +: Bacterial growth; −: No bacterial growth; conditions: 72 h
Description: as §1, §2, §3, §4, §5

[11] = test system: Mycobacterium smegmatis (MC^2 155); test: as above; type: cell-based; parameters: key: +: Bacterial growth; −: No bacterial growth; conditions: 72 h
Description: as §1, §2, §3, §4, §5

[12] = test system: Salmonella typhi (14028s); test: as above; type: cell-based; parameters: key: +: Bacterial growth; −: No bacterial growth; conditions: 72 h
Description: as §1, §2, §3, §4, §5

CC/C=C\C/C=C\C/C=C\CCCCCCCC(=O)[O-].CC/C=C\C/C=C\C/C=C\CCCCCCCC(=O)[O-].[Zn+2] [zinc linolenate] was tested, and the “toxicity compared with linolenic acid” value [1] was “smaller than that of linolenic acid”, the Bacterial growth ([2]; zinc linolenate 2 μg/ml) was “+” and the Bacterial growth ([2]; zinc linolenate 4 μg/ml) was “+”. The Bacterial growth ([2]; zinc linolenate 8 μg/ml) was “+”, the Bacterial growth ([2]; zinc linolenate 16 μg/ml) was “+” and the Bacterial growth ([2]; zinc linolenate 32 μg/ml) was “+”. The Bacterial growth ([2]; zinc linolenate 64 μg/ml) was “+”, the Bacterial growth ([2]; zinc linolenate 128 μg/ml) was “+” and the Bacterial growth ([3]; zinc linolenate 2 μg/ml) was “+”. The Bacterial growth ([3]; zinc linolenate 4 μg/ml) was “+”, the Bacterial growth ([3]; zinc linolenate 8 μg/ml) was “+” and the Bacterial growth ([3]; zinc linolenate 16 μg/ml) was “+”. The Bacterial growth ([3]; zinc linolenate 32 μg/ml) was “+”, the Bacterial growth ([3]; zinc linolenate 64 μg/ml) was “+” and the Bacterial growth ([3]; zinc linolenate 128 μg/ml) was “−”. For the same compound, the Bacterial growth ([4]; zinc linolenate 2 μg/ml) was “+”, the Bacterial growth ([4]; zinc linolenate 4 μg/ml) was “+” and the Bacterial growth ([4]; zinc linolenate 8 μg/ml) was “+”. For the same compound, the Bacterial growth ([4]; zinc linolenate 16 μg/ml) was “+”, the Bacterial growth ([4]; zinc linolenate 32 μg/ml) was “+” and the Bacterial growth ([4]; zinc linolenate 64 μg/ml) was “+”. For the same compound, the Bacterial growth ([4]; zinc linolenate 128 μg/ml) was “+”, the Bacterial growth ([5]; zinc linolenate 2 μg/ml) was “+” and the Bacterial growth ([5]; zinc linolenate 4 μg/ml) was “+”. For the same compound, the Bacterial growth ([5]; zinc linolenate 8 μg/ml) was “+”, the Bacterial growth ([5]; zinc linolenate 16 μg/ml) was “+” and the Bacterial growth ([5]; zinc linolenate 32 μg/ml) was “+”. For the same compound, the Bacterial growth ([5]; zinc linolenate 64 μg/ml) was “+”, the Bacterial growth ([5]; zinc linolenate 128 μg/ml) was “−” and the Bacterial growth ([6]; zinc linolenate 2 μg/ml) was “+”. The Bacterial growth ([6]; zinc linolenate 4 μg/ml) was “+”, the Bacterial growth ([6]; zinc linolenate 8 μg/ml) was “+” and the Bacterial growth ([6]; zinc linolenate 16 μg/ml) was “+”. For the same compound, the Bacterial growth ([6]; zinc linolenate 32 μg/ml) was “+”, the Bacterial growth ([6]; zinc linolenate 64 μg/ml) was “+” and the Bacterial growth ([6]; zinc linolenate 128 μg/ml) was “+”. For the same compound, the Bacterial growth ([7]; zinc linolenate 2 μg/ml) was “+”, the Bacterial growth ([7]; zinc linolenate 4 μg/ml) was “+” and the Bacterial growth ([7]; zinc linolenate 8 μg/ml) was “+”. The Bacterial growth ([7]; zinc linolenate 16 μg/ml) was “+”, the Bacterial growth ([7]; zinc linolenate 32 μg/ml) was “+” and the Bacterial growth ([7]; zinc linolenate 64 μg/ml) was “+”. For the same compound, the Bacterial growth ([7]; zinc linolenate 128 μg/ml) was “+”, the Bacterial growth ([8]; zinc linolenate 2 μg/ml) was “+” and the Bacterial growth ([8]; zinc linolenate 4 μg/ml) was “+”. For the same compound, the Bacterial growth ([8]; zinc linolenate 8 μg/ml) was “+”, the Bacterial growth ([8]; zinc linolenate 16 μg/ml) was “+” and the Bacterial growth ([8]; zinc linolenate 32 μg/ml) was “+”. The Bacterial growth ([8]; zinc linolenate 64 μg/ml) was “+”, the Bacterial growth ([8]; zinc linolenate 128 μg/ml) was “+” and the Bacterial growth ([9]; zinc linolenate 2 μg/ml) was “+”. The Bacterial growth ([9]; zinc linolenate 4 μg/ml) was “+”, the Bacterial growth ([9]; zinc linolenate 8 μg/ml) was “+” and the Bacterial growth ([9]; zinc linolenate 16 μg/ml) was “+”. For the same compound, the Bacterial growth ([9]; zinc linolenate 32 μg/ml) was “+”, the Bacterial growth ([9]; zinc linolenate 64 μg/ml) was “+” and the Bacterial growth ([9]; zinc linolenate 128 μg/ml) was “−”. For the same compound, the Bacterial growth ([10]; zinc linolenate 2 μg/ml) was “+”, the Bacterial growth ([10]; zinc linolenate 4 μg/ml) was “+” and the Bacterial growth ([10]; zinc linolenate 8 μg/ml) was “+”. For the same compound, the Bacterial growth ([10]; zinc linolenate 16 μg/ml) was “+”, the Bacterial growth ([10]; zinc linolenate 32 μg/ml) was “+” and the Bacterial growth ([10]; zinc linolenate 64 μg/ml) was “+”. The Bacterial growth ([10]; zinc linolenate 128 μg/ml) was “+”, the Bacterial growth ([11]; zinc linolenate 2 μg/ml) was “+” and the Bacterial growth ([11]; zinc linolenate 4 μg/ml) was “+”. The Bacterial growth ([11]; zinc linolenate 8 μg/ml) was “+”, the Bacterial growth ([11]; zinc linolenate 16 μg/ml) was “+” and the Bacterial growth ([11]; zinc linolenate 32 μg/ml) was “+”. For the same compound, the Bacterial growth ([11]; zinc linolenate 64 μg/ml) was “+”, the Bacterial growth ([11]; zinc linolenate 128 μg/ml) was “+” and the Bacterial growth ([12]; zinc linolenate 2 μg/ml) was “+”. The Bacterial growth ([12]; zinc linolenate 4 μg/ml) was “+”, the Bacterial growth ([12]; zinc linolenate 8 μg/ml) was “+” and the Bacterial growth ([12]; zinc linolenate 16 μg/ml) was “+”. The Bacterial growth ([12]; zinc linolenate 32 μg/ml) was “+”, the Bacterial growth ([12]; zinc linolenate 64 μg/ml) was “+” and the Bacterial growth ([12]; zinc linolenate 128 μg/ml) was “+”.
